In US20140065103A1 (VERTEX PHARMACEUTICALS INCORPORATED, priority 2010, published 2014):
pIC50: −log10 of the molar value. Like-named read-outs stand apart in the source and are kept apart here.

Key:
[1] = system: HCV sub-genomic replicon of genotype 1a in replicon cell line W11.8; assay: microbe, parasite or virus in culture; format: cell-based, Hepatitis C virus; conditions: read-out: HCV-Replicon-ELISA-1a IC50
[2] = system: Huh-7 ET, Molt-4, DU-145, Hep-G2 and SH-SY5Y cells; assay: [3H]Thymidine incorporation assay (cytotoxicity, CC50); conditions: [3H]thymidine incorporation; cell line not given
[3] = system: HCV replicon (genotype 1b) in Huh7 hepatoma cell line ET; assay: microbe, parasite or virus in culture; format: cell-based, Hepatitis C virus; conditions: Hepatitis C virus, Huh-7, 96 h, read-out: HCV-Replicon-1b_IC50
[4] = [3H]Thymidine incorporation assay (cytotoxicity, CC50); conditions: human

CC(CN(c1cc(C#CC(C)(C)C)sc1C(=O)O)C(=O)[C@H]1CC[C@H](C)CC1)n1cccn1 (stereo partly drawn) [Compound 73, 5-(3,3-Dimethylbut-1-ynyl)-3-[(4-trans-methylcyclohexanecarbonyl)-(2-pyrazol-1-ylpropyl)amino]thiophene-2-carboxylic acid]
pIC50 [1]: > 7.00
CC50 [2]: 10 to 100 µM

COCCN(c1cc(C#CC(C)(C)C)sc1C(=O)O)C(=O)[C@H]1CC[C@H](C)CC1 [Compound 29, 5-(3,3-Dimethylbut-1-ynyl)-3-(N-(2-methoxyethyl)-4-trans-methylcyclohexanecarboxamido)thiophene-2-carboxylic acid]
pIC50 [1]: > 7.00
CC50 [2]: 10 to 100 µM

CC(C)C#Cc1cc(N(C(=O)[C@H]2CC[C@H](C)CC2)[C@H]2CC[C@H](OCCO)CC2)c(C(=O)O)s1 [Compound 62, 5-(3-Methylbut-1-yn-1-yl)-3-((N-4-trans-(2-hydroxy)-ethoxycyclohexyl)-(4-trans-methylcyclohexane)carboxamido)thiophene-2-carboxylic acid]
pIC50 [1]: > 7.00
CC50 [2]: 10 to 100 µM

5-(3,3-dimethylbut-1-yn-1-yl)-3-(trans-4-methyl-N-((S)-1-methylsulfonyl)pyrrolidin-3-yl)thiophene-2-carboxylic acid [Compound 68]
pIC50 [1]: > 7.00
CC50 [2]: > 100 µM

CC(C)(C)C#Cc1cc(N(Cc2ccccc2)C(=O)[C@H]2CC[C@H](C)CC2)c(C(=O)O)s1 [Compound 74, 3-[Benzyl-(4-trans-methylcyclohexanecarbonyl)amino]-5-(3,3-dimethylbut-1-ynyl)thiophene-2-carboxylic acid]
pIC50 [1]: 6.00 to 7.00
CC50 [2]: 10 to 100 µM

CC(Cn1cccn1)N(c1cc(C#CC(C)(C)C)sc1C(=O)O)C(=O)[C@H]1CC[C@H](C)CC1 (stereo partly drawn) [Compound 80, 5-(3,3-Dimethylbut-1-ynyl)-3-[(4-trans-methylcyclohexanecarbonyl)-(1-methyl-2-pyrazol-1-yl-ethyl)amino]thiophene-2-carboxylic acid]
pIC50 [1]: > 7.00
CC50 [2]: 10 to 100 µM

5-(3,3-dimethylbut-1-yn-1-yl)-3-(trans-4-methyl-N—((R)-1-methylsulfonyl)pyrrolidin-3-yl)thiophene-2-carboxylic acid [Compound 69]
pIC50 [1]: > 7.00
CC50 [2]: > 100 µM

Cc1ccc(C(=O)N(c2cc(C#CC(C)(C)C)sc2C(=O)O)[C@H]2CC[C@H](O)CC2)cc1F [Compound 93, 5-(3,3-Dimethyl-but-1-ynyl)-3-[(3-fluoro-4-methyl-benzoyl)-(trans-4-hydroxy-cyclohexyl)-amino]thiophene-2-carboxylic acid]
pIC50 [3]: 6.00 to 7.00

CN(C)C[C@H]1C[C@H](N(c2cc(C#CC(C)(C)C)sc2C(=O)O)C(=O)[C@H]2CC[C@H](C)CC2)C1 [Compound 70, 5-(3,3-Dimethylbut-1-yn-1-yl)-3-(trans-4-methyl-N((trans-3-(dimethylamino)methyl)cyclobutyl)cyclohexanecarboxamido)thiophene-2 carboxylic acid]
pIC50 [1]: > 7.00
CC50 [2]: > 100 µM

Cc1ccc(C(=O)N(c2cc(C#CC(C)(C)C)sc2C(=O)O)[C@H]2CC[C@H](O)CC2)c(C)c1 [Compound 83, 3-[(2,4-Dimethyl-benzoyl)-(trans-4-hydroxy-cyclohexyl)-amino]-5-(3,3-dimethyl-but-1-ynyl)-thiophene-2-carboxylic acid]
pIC50 [3]: 6.00 to 7.00

CN(C)C(=O)[C@H]1C[C@H](N(c2cc(C#CC(C)(C)C)sc2C(=O)O)C(=O)[C@H]2CC[C@H](C)CC2)C1 [Compound 63, 5-(3,3-Dimethylbut-1-yn-1-yl)-3-(N-(3-trans-(dimethylcarbamoyl)-cyclobutyl)-4-trans-methylcyclohexanecarboxamido)thiophene-2-carboxylic acid]
pIC50 [1]: > 7.00
CC50 [2]: > 100 µM

CC(C)c1noc(C(C)N(c2cc(C#CC(C)(C)C)sc2C(=O)O)C(=O)[C@H]2CC[C@H](C)CC2)n1 (stereo partly drawn) [Compound 79]
pIC50 [1]: 6.00 to 7.00
CC50 [2]: 10 to 100 µM

CCc1noc(C(C)N(c2cc(C#CC(C)(C)C)sc2C(=O)O)C(=O)[C@H]2CC[C@H](C)CC2)n1 (stereo partly drawn) [Compound 75]
pIC50 [1]: > 7.00
CC50 [2]: 10 to 100 µM

COCC(COC)N(c1cc(C#CC(C)(C)C)sc1C(=O)O)C(=O)[C@H]1CC[C@H](C)CC1 [Compound 39, 3-(-N-(1,3-Dimethoxypropan-2-yl)-4-trans-methylcyclohexanecarboxamido)-5-(3,3-dimethylbut-1-yn-1-yl)thiophene-2-carboxylic acid]
pIC50 [1]: 6.00 to 7.00
CC50 [2]: 10 to 100 µM

CC(=O)N1CC[C@@H](N(c2cc(C#CC(C)(C)C)sc2C(=O)O)C(=O)[C@H]2CC[C@H](C)CC2)C1 (stereo in doubt) [Compound 60, 3-(N—((R)-1-Acetylpyrrolidin-3-yl)-4-trans-methylcyclohexane-carboxamido)-5-(3,3-dimethylbut-1-yn-1-yl)thiophene-2-carboxylic acid]
pIC50 [1]: 6.00 to 7.00
CC50 [2]: > 100 µM

CC[C@@H](C(=O)O)N(c1cc(C#CC(C)(C)C)sc1C(=O)O)C(=O)[C@H]1CC[C@H](C)CC1 (relative stereo) [Compound 41, 3-(N—((S)-1-carboxypropyl)-(4-trans-methylcyclohexane)-carboxamido)-5-(3,3-dimethylbut-1-yn-1-yl)thiophene-2-carboxylic acid]
pIC50 [1]: > 7.00
CC50 [2]: > 100 µM

CCc1noc(CN(c2cc(C#CC(C)(C)C)sc2C(=O)O)C(=O)[C@H]2CC[C@H](C)CC2)n1 [Compound 78, 5-(3,3-dimethylbut-1-ynyl)-3-[(3-ethyl-1,2,4-oxadiazol-5-yl)methyl-(4-trans-methylcyclohexanecarbonyl)amino]thiophene-2-carboxylic acid]
pIC50 [1]: > 7.00
CC50 [2]: 10 to 100 µM

CC(=O)N1CC[C@H](N(c2cc(C#CC(C)(C)C)sc2C(=O)O)C(=O)[C@H]2CC[C@H](C)CC2)C1 (stereo in doubt) [Compound 59, 3-(N—((S)-1-Acetylpyrrolidin-3-yl)-4-trans-methylcyclohexanecarboxamido)-5-(3,3-dimethylbut-1-yn-1-yl)thiophene-2-carboxylic acid]
pIC50 [1]: > 7.00
CC50 [2]: > 100 µM

3-[Cyclohex-3-enyl-(trans-4-methyl-cyclohexanecarbonyl)-amino]-5-(3,3-dimethyl-but-1-ynyl)-thiophene-2-carboxylic acid [Compound 13]
pIC50 [1]: 5.00 to 6.00
CC50 [2]: 10 to 100 µM

CC(C)C#Cc1cc(N(C(=O)[C@H]2CC[C@H](C)CC2)[C@H]2CC[C@@H](OCCO)CC2)c(C(=O)O)s1 [Compound 61, 5-(3-Methylbut-1-yn-1-yl)-3-((N-4-cis-(2-hydroxy)-ethoxycyclohexyl)-(4-trans-methylcyclohexane)carboxamido)thiophene-2-carboxylic acid]
pIC50 [1]: 6.00 to 7.00
CC50 [2]: 10 to 100 µM

CC(C)(C)C#Cc1cc(N(C(=O)[C@H]2CC[C@H](C)CC2)C2CCC(F)(F)CC2)c(C(=O)O)s1 [Compound 14, 3-[(4,4-Difluoro-cyclohexyl)-(trans-4-methyl-cyclohexanecarbonyl)-amino]-5-(3,3-dimethyl-but-1-ynyl)-thiophene-2-carboxylic acid]
pIC50 ([1]; Hepatitis C virus, W11.8, 96 h): > 7.00
CC50 at 72 h [4]: 10 to 100 µM

CC(C)N(c1cc(C#CC2CC2)sc1C(=O)O)C(=O)[C@H]1CC[C@H](C)CC1 [Compound 20, 5-Cyclopropylethynyl-3-[isopropyl-(trans-4-methyl-cyclohexanecarbonyl)-amino]-thiophene-2-carboxylic acid]
pIC50 ([1]; Hepatitis C virus, W11.8, 96 h): 6.00 to 7.00
CC50 at 72 h [4]: 10 to 100 µM

Cc1noc(C)c1CN(c1cc(C#CC(C)(C)C)sc1C(=O)O)C(=O)[C@H]1CC[C@H](C)CC1 [Compound 54, 5-(3,3-Dimethylbut-1-yn-1-yl)-3-(N-((3,5-dimethylisoxazol-4-yl)methyl)-4-trans-methylcyclohexanecarboxamido)thiophene-2-carboxylic acid]
pIC50 [1]: > 7.00
CC50 [2]: 10 to 100 µM

CC(C)C#Cc1cc(N(C(=O)[C@H]2CC[C@H](C)CC2)C2CCOCC2)c(C(=O)O)s1 [Compound 43, 3-(N-(tetrahydro-2H-pyran-4-yl)-4-trans-methyl-cyclohexanecarboxamido)-5-(3-methylbut-1-yn-1-yl)thiophene-2-carboxylic acid]
pIC50 [1]: > 7.00
CC50 [2]: 10 to 100 µM

CC(C)(C)C#Cc1cc(N(C(=O)[C@H]2CC[C@H](C)CC2)C2CC2)c(C(=O)O)s1 [Compound 16, 3-[Cyclopropyl-(trans-4-methyl-cyclohexanecarbonyl)-amino]-5-(3,3-dimethyl-but-1-ynyl)-thiophene-2-carboxylic acid]
pIC50 ([1]; Hepatitis C virus, W11.8, 96 h): 6.00 to 7.00
CC50 at 72 h [4]: 10 to 100 µM

CC(C)N(c1cc(C#CC2CCCCC2)sc1C(=O)O)C(=O)[C@H]1CC[C@H](C)CC1 [Compound 18, 5-Cyclohexylethynyl-3-[isopropyl-(trans-4-methyl-cyclohexanecarbonyl)-amino]-thiophene-2-carboxylic acid]
pIC50 ([1]; Hepatitis C virus, W11.8, 96 h): 5.00 to 6.00
CC50 at 72 h [4]: 10 to 100 µM

Cn1ccc(CN(c2cc(C#CC(C)(C)C)sc2C(=O)O)C(=O)[C@H]2CC[C@H](C)CC2)n1 [Compound 71, 5-(3,3-Dimethylbut-1-ynyl)-3-((trans)-4-methyl-N-((1-methyl-1H-pyrazol-3-yl)methyl)cyclohexanecarboxamido)thiophene-2-carboxylic acid]
pIC50 ([1]; Hepatitis C virus, W11.8, 96 h): > 7.00
CC50 at 72 h [4]: 10 to 100 µM

Cn1ccnc1CN(c1cc(C#CC(C)(C)C)sc1C(=O)O)C(=O)[C@H]1CC[C@H](C)CC1 [Compound 64, 5-(3,3-Dimethylbut-1-ynyl)-3-((trans)-4-methyl-N-((1-methyl-1H-imidazol-2-yl)methyl)cyclohexanecarboxamido)thiophene-2-carboxylic acid]
pIC50 ([1]; Hepatitis C virus, W11.8, 96 h): > 7.00
CC50 at 72 h [4]: 10 to 100 µM
